The values below are quoted from earlier work in US4405354A, “Elimination of odors from waste material” (priority 1980, dated 1983).

Read-outs that look alike come from different tables or passages of the source.

Take `N` [aqueous ammonia]: the Kb is listed as 1.374 × 10^-5 (0 °C); 1.479 × 10^-5 (5 °C); 1.570 × 10^-5 (10 °C); 1.652 × 10^-5 (15 °C); 1.710 × 10^-5 (20 °C); 1.774 × 10^-5 (25 °C). Also, the Kb (30 °C) is 1.820 × 10^-5; the Kb (35 °C) is given as 1.849 × 10^-5; the Kb (40 °C) is 1.862 × 10^-5; the Kb (45 °C) is reported as 1.879 × 10^-5; the Kb (50 °C) was 1.892 × 10^-5.
